Reference: the NIST ThermoML archive (doi:10.1016/j.jct.2006.10.008)

Key:
[1] = xn = mol fraction of the nth substance listed; settings: 298.15 K, 101 kPa, Liquid
[2] = excess molar enthalpy (molar enthalpy of mixing); xn = mol fraction of the nth substance listed; settings: 298.15 K, 101 kPa, Liquid, Calvet calorimetry

ClCCCCCCCl [1,6-dichlorohexane] + COC=O
Settings	excess molar enthalpy [kcal/mol]	mass density [kg/m3]
[1], x2 = 0.1205	–	1057.33
[1], x2 = 0.2277	–	1050.93
[1], x2 = 0.3234	–	1044.52
[1], x2 = 0.4146	–	1037.85
[1], x2 = 0.4858	–	1032.03
[1], x2 = 0.555	–	1025.73
[1], x2 = 0.6169	–	1019.68
[1], x2 = 0.6713	–	1013.87
[1], x2 = 0.7244	–	1007.71
[1], x2 = 0.7696	–	1002.16
[1], x2 = 0.811	–	996.6
[1], x2 = 0.8479	–	991.36
[1], x2 = 0.8838	–	986.03
[1], x2 = 0.9163	–	980.96
[1], x2 = 0.9461	–	976
[1], x2 = 0.9737	–	970.7
[2], x2 = 0.0953	0.058	–
[2], x2 = 0.2199	0.1098	–
[2], x2 = 0.3324	0.1456	–
[2], x2 = 0.4307	0.1664	–
[2], x2 = 0.5033	0.1742	–
[2], x2 = 0.5596	0.1754	–
[2], x2 = 0.5977	0.1763	–
[2], x2 = 0.6601	0.173	–
[2], x2 = 0.7167	0.1668	–
[2], x2 = 0.7749	0.1558	–
[2], x2 = 0.8296	0.1374	–
[2], x2 = 0.8855	0.113	–
[2], x2 = 0.935	0.0781	–
[2], x2 = 0.974	0.0416	–

CCCCOC=O [butyl methanoate] + ClCCCl
Settings	excess molar enthalpy [kcal/mol]	mass density [kg/m3]
[1], x1 = 0.0446	–	1222.63
[1], x1 = 0.087	–	1201.85
[1], x1 = 0.1314	–	1180.87
[1], x1 = 0.1786	–	1159.63
[1], x1 = 0.2266	–	1138.77
[1], x1 = 0.277	–	1117.89
[1], x1 = 0.3837	–	1076.58
[1], x1 = 0.4403	–	1056.07
[1], x1 = 0.5	–	1035.47
[1], x1 = 0.5622	–	1014.9
[1], x1 = 0.6248	–	995.09
[1], x1 = 0.6931	–	974.48
[1], x1 = 0.7645	–	953.92
[1], x1 = 0.8389	–	933.51
[2], x1 = 0.0414	-0.00954	–
[2], x1 = 0.0923	-0.0212	–
[2], x1 = 0.1436	-0.0343	–
[2], x1 = 0.1984	-0.0481	–
[2], x1 = 0.2527	-0.0619	–
[2], x1 = 0.3048	-0.075	–
[2], x1 = 0.3561	-0.08504	–
[2], x1 = 0.4041	-0.09405	–
[2], x1 = 0.4493	-0.1003	–
[2], x1 = 0.4629	-0.1006	–
[2], x1 = 0.5202	-0.1025	–
[2], x1 = 0.5856	-0.1005	–
[2], x1 = 0.6594	-0.09278	–
[2], x1 = 0.7406	-0.0785	–
[2], x1 = 0.829	-0.0569	–
[2], x1 = 0.9165	-0.0319	–

CCOC=O [ethyl methanoate] + ClCCCl
Settings	excess molar enthalpy [kcal/mol]	mass density [kg/m3]
[1], x1 = 0.0571	–	1226.06
[1], x1 = 0.1212	–	1204.8
[1], x1 = 0.1793	–	1185.79
[1], x1 = 0.2317	–	1168.78
[1], x1 = 0.2946	–	1148.35
[1], x1 = 0.355	–	1128.9
[1], x1 = 0.4144	–	1109.76
[1], x1 = 0.465	–	1093.66
[1], x1 = 0.5294	–	1073.24
[1], x1 = 0.5889	–	1054.49
[1], x1 = 0.6485	–	1035.88
[1], x1 = 0.7065	–	1017.61
[1], x1 = 0.7648	–	999.52
[1], x1 = 0.8239	–	981.06
[1], x1 = 0.8823	–	962.96
[1], x1 = 0.9345	–	946.9
[2], x1 = 0.0533	-0.0075	–
[2], x1 = 0.117	-0.0173	–
[2], x1 = 0.1872	-0.0268	–
[2], x1 = 0.2551	-0.0353	–
[2], x1 = 0.3201	-0.0432	–
[2], x1 = 0.3798	-0.05	–
[2], x1 = 0.4359	-0.0549	–
[2], x1 = 0.4835	-0.0584	–
[2], x1 = 0.5094	-0.0598	–
[2], x1 = 0.5591	-0.0598	–
[2], x1 = 0.6134	-0.0574	–
[2], x1 = 0.6735	-0.0546	–
[2], x1 = 0.7374	-0.0485	–
[2], x1 = 0.8	-0.0397	–
[2], x1 = 0.8714	-0.0283	–
[2], x1 = 0.9368	-0.0146	–

COC=O [methyl methanoate] + ClCCCl
Settings	excess molar enthalpy [kcal/mol]	mass density [kg/m3]
[1], x1 = 0.0778	–	1227.3
[1], x1 = 0.1458	–	1211.22
[1], x1 = 0.2144	–	1194.43
[1], x1 = 0.2795	–	1177.71
[1], x1 = 0.3474	–	1160.37
[1], x1 = 0.4099	–	1143.76
[1], x1 = 0.4725	–	1126.96
[1], x1 = 0.5316	–	1110.73
[1], x1 = 0.5888	–	1094.68
[1], x1 = 0.6463	–	1077.99
[1], x1 = 0.6998	–	1062.25
[1], x1 = 0.753	–	1046.16
[1], x1 = 0.8045	–	1030.32
[1], x1 = 0.8548	–	1014.49
[1], x1 = 0.9043	–	998.6
[1], x1 = 0.9525	–	982.78
[2], x1 = 0.0754	0.00636	–
[2], x1 = 0.1373	0.011	–
[2], x1 = 0.1901	0.0152	–
[2], x1 = 0.2508	0.019	–
[2], x1 = 0.3109	0.0219	–
[2], x1 = 0.3728	0.0238	–
[2], x1 = 0.4325	0.0247	–
[2], x1 = 0.4874	0.0246	–
[2], x1 = 0.5372	0.024	–
[2], x1 = 0.5928	0.0226	–
[2], x1 = 0.6569	0.0206	–
[2], x1 = 0.7322	0.0175	–
[2], x1 = 0.8084	0.0138	–
[2], x1 = 0.8844	0.00951	–
[2], x1 = 0.9514	0.0049	–
